Literature values as cited in US20230104487A1, “11-(4-CHLOROPHENYL)-4-(2,3-DIHYDRO-1H-INDOLE-1-CARBONYL)-3,11-DIMETHYL-5,10,DIOXATRICYCLO[7.4.0.0,2,6,]TRIDECA-1,3,6,8-TETRAEN-13-ONE AND DERIVATIVES AS DESTABILIZER OF CRY1 FOR THE TREATMENT OF CIRCADIAN RHYTHM ASSOCIATED DISEASES AND DISORDERS” (KOC UNIVERSITESI, priority 2019, published 2023).

Experiments:
[1] = test system: gluconeogenesis; details: Hirota et al., 2012; cited from earlier work
[2] = test system: CRYs; details: Hirota et al., 2012; cited from earlier work
[3] = test system: REV-ERB; details: Solt et al., 2012; cited from earlier work

Row | Compound | effect on gluconeogenesis [1] | effect on stability of the CRYs [2] | effect on REV-ERB's repressor function [3]
1 | CS(=O)(=O)N(Cc1ccco1)CC(O)Cn1c2ccccc2c2ccccc21 (stereo not drawn) [KL001] | suppresses the gluconeogenesis | increases stability of the CRYs | 
2 | CC(C)(C)OC(=O)CN(Cc1ccc(Cl)cc1)Cc1ccc([N+](=O)[O-])s1 [GSK4112] |  |  | enhance REV-ERB's repressor function toward Bmal1 transcription
